Experimental data reported in ChEMBL document CHEMBL1136644, “Alkylation of manganese(II) tetraphenylporphyrin by antimalarial fluorinated artemisinin derivatives” (Bioorg Med Chem Lett, 2003).

Experiments:
[1] = Half-life in plasma; type: ADME, cell-free
[2] = tested on: Plasmodium falciparum; assay: In vitro inhibitory activity against the chloroquine-resistant Plasmodium falciparum W2 Indochina; type: functional, organism-based
[3] = Partition coefficient (logP); type: physicochemical; settings: octanol/water

Compound | half-life [1] | IC50 [2] | logP [3]
C[C@H]1[C@@H](C(=O)OCCC(=O)[O-])O[C@@H]2O[C@]3(C)CC[C@H]4[C@H](C)CC[C@@H]1C24OO3.[Na+] | < 2 h | – | –
C[C@@H]1CC[C@H]2[C@@H](C)[C@](O[Si](C)(C)C)(C(F)(F)F)O[C@@H]3O[C@]4(C)CC[C@@H]1C32OO4 | – | 72 nM | –
CO[C@H]1O[C@@H]2OC3(C)CC[C@H]4[C@H](C)CC[C@@H]([C@H]1C)[C@@]24OO3 (single isomer, unassigned) [ARTEMETHER] | < 2 h | – | 3.36
C[C@@H]1CC[C@H]2[C@@H](C)C(=O)O[C@@H]3OC4(C)CC[C@@H]1[C@]32OO4 (single isomer, unassigned) [ARTEMISININ] | < 2 h | – | –
